21 compounds from patent US20220306647A1, “NOVEL INDOLE-2-CARBOXAMIDES ACTIVE AGAINST THE HEPATITUS B VIRUS (HBV)” (AICURIS GMBH & CO. KG, priority 2019, published 2022) can be followed below.

T1 sequence (P03146 whole entry, the tested form may be a part): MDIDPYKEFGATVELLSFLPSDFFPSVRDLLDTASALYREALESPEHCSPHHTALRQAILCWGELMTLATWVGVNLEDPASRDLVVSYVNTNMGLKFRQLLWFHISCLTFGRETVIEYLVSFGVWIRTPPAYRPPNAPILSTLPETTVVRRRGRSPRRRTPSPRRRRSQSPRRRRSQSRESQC

This assay addresses T1, HBV core protein (C-terminal truncated core protein, 149 amino acids of the N-terminal assembly domain, BODIPY-FL labelled) (UniProt P03146).
T1 construct: fused on or other part: A single cysteine added after residue 149, at position 150; It carries the BODIPY-FL maleimide label
Put plainly: Biochemical capsid assembly assay (fluorescence quenching). Conditions: assembly started with NaCl, fluorescence read after 6 min, read-out: Assembly activity. The procedure:
The screening for assembly effector activity was done based on a fluorescence quenching assay published by Zlotnick et al. (2007). The C-terminal truncated core protein containing 149 amino acids of the N-terminal assembly domain fused to a unique cysteine residue at position 150 and was expressed in E. coli using the pET expression system (Merck Chemicals, Darmstadt). Purification of core dimer protein was performed using a sequence of size exclusion chromatography steps. In brief, the cell pellet from 1 L BL21 (DE3) Rosetta2 culture expressing the coding sequence of core protein cloned NdeI/XhoI into expression plasmid pET21b was treated for 1 h on ice with a native lysis buffer (Qproteome Bacterial Protein Prep Kit; Qiagen, Hilden). After a centrifugation step the supernatant was precipitated during 2 h stirring on ice with 0.23 g/ml of solid ammonium sulfate. Following further centrifugation the resulting pellet was resolved in buffer A (100 mM Tris, pH 7.5; 100 mM NaCl; 2 mM DTT) and was subsequently loaded onto a buffer A equilibrated CaptoCore 700 column (GE HealthCare, Frankfurt). The column flow through containing the assembled HBV capsid was dialyzed against buffer N (50 mM NaHCO3 pH 9.6; 5 mM DTT) before urea was added to a final concentration of 3M to dissociate the capsid into core dimers for 1.5 h on ice. The protein solution was then loaded onto a 1L Sephacryl S300 column. After elution with buffer N core dimer containing fractions were identified by SDS-PAGE and subsequently pooled and dialyzed against 50 mM HEPES pH 7.5; 5 mM DTT. To improve the assembly capacity of the purified core dimers a second round of assembly and disassembly starting with the addition of 5 M NaCl and including the size exclusion chromatography steps described above was performed. From the last chromatography step core dimer containing fractions were pooled and stored in aliquots at concentrations between 1.5 to 2.0 mg/ml at −80° C.
Immediately before labelling the core protein was reduced by adding freshly prepared DTT in a final concentration of 20 mM. After 40 min incubation on ice storage buffer and DTT was removed using a Sephadex G-25 column (GE HealthCare, Frankfurt) and 50 mM HEPES, pH 7.5. For labelling 1.6 mg/ml core protein was incubated at 4° C. and darkness overnight with BODIPY-FL maleimide (Invitrogen, Karlsruhe) in a final concentration of 1 mM. After labelling the free dye was removed by an additional desalting step using a Sephadex G-25 column. Labelled core dimers were stored in aliquots at 4° C. In the dimeric state the fluorescence signal of the labelled core protein is high and is quenched during the assembly of the core dimers to high molecular capsid structures. The screening assay was performed in black 384 well microtiter plates in a total assay volume of 10 μl using 50 mM HEPES pH 7.5 and 1.0 to 2.0 μM labelled core protein. Each screening compound was added in 8 different concentrations using a 0.5 log-unit serial dilution starting at a final concentration of 100 μM, 31.6 μM or 10 μM, In any case the DMSO concentration over the entire microtiter plate was 0.5%. The assembly reaction was started by the injection of NaCl to a final concentration of […] which induces the assembly process to approximately 25% of the maximal quenched signal. 6 min after starting the reaction the fluorescence signal was measured using a Clariostar plate reader (BMG Labtech, Ortenberg) with an excitation of 477 nm and an emission of 525 nm. As 100% and 0% assembly control HEPES buffer containing 2.5 M and 0 M NaCl was used. Experiments were performed thrice in triplicates. EC50 values were calculated by non-linear regression analysis using the Graph Pad Prism 6 software (GraphPad Software, La Jolla, USA).
For `C[C@@H](NC(=O)c1onc2c1CN(C(=O)c1cc3c(Cl)cccc3[nH]1)CC2)C(F)(F)F` [Example 118, 5-(4-chloro-1H-indole-2-carbonyl)-N-[(2R)-1,1,1-trifluoropropan-2-yl]-4H,5H,6H,7H-[1,2]oxazolo[4,3-c]pyridine-3-carboxamide], the IC50 is less than 5 µM. For `O=C(c1cc2c(F)c(F)ccc2[nH]1)N1CCc2nn3c(c2C1)C(=O)N(CCO)C1(CC3)CC1` [Example 120, 4′-(4,5-difluoro-1H-indole-2-carbonyl)-13′-(2-hydroxyethyl)-4′, 8′,9′,13′-tetraazaspiro[cyclopropane-1,12′-tricyclo[7.5.0.0^2,7]tetradecane]-1′,7′-dien-14′-one] the value was less than 5 µM; for `O=C(c1cc2cc(F)c(F)cc2[nH]1)N1CCc2nn3c(c2C1)C(=O)N(CCO)C1(CC3)CC1` [Example 121, 4′-(5,6-difluoro-1H-indole-2-carbonyl)-13′-(2-hydroxyethyl)-4′, 8′,9′,13′-tetraazaspiro[cyclopropane-1,12′-tricyclo[7.5.0.0^2,7]tetradecane]-1′,7′-dien-14′-one], less than 5 µM. In the case of `O=C(c1cc2cc(F)c(Cl)cc2[nH]1)N1CCc2nn3c(c2C1)C(=O)N(CCO)C1(CC3)CC1` [Example 122, 4′-(6-chloro-5-fluoro-1H-indole-2-carbonyl)-13′-(2-hydroxyethyl)-4′,8′,9′,13′-tetraazaspiro[cyclopropane-1,12′-tricyclo[7.5.0.0^2,7]tetradecane]-1′,7′-dien-14′-one] it was less than 5 µM; in that of `COCCN1C(=O)c2c3c(nn2CCC12CC2)CCN(C(=O)c1cc2ccccc2[nH]1)C3` [Example 123, 4′-(1H-indole-2-carbonyl)-13′-(2-methoxyethyl)-4′, 8′,9′,13′-tetraazaspiro[cyclopropane-1,12′-tricyclo[7.5.0.0^2,7]tetradecane]-1′,7′-dien-14′-one], less than 5 µM. In the case of `CN(C)CCN1C(=O)c2c3c(nn2CCC12CC2)CCN(C(=O)c1cc2ccccc2[nH]1)C3` [Example 124, 13′-[2-(dimethylamino)ethyl]-4′-(1H-indole-2-carbonyl)-4′,8′,9′,13′-tetraazaspiro[cyclopropane-1,12′-tricyclo[7.5.0.0^2,7]tetradecane]-1′,7′-dien-14′-one] it was 5 to 10 µM.

As for `CN1CCN(CCN2C(=O)c3c4c(nn3CCC23CC3)CCN(C(=O)c2cc3ccccc3[nH]2)C4)CC1` [Example 125, 4′-(1H-indole-2-carbonyl)-13′-[2-(4-methylpiperazin-1-yl)ethyl]-4′,8′,9′,13′-tetraazaspiro[cyclopropane-1,12′-tricyclo[7.5.0.0^2,7]tetradecane]-1′,7′-dien-14′-one], the IC50 was less than 5 µM. For `O=C(NC1(COC(F)F)CC1)c1onc2c1CN(C(=O)c1cc3ccccc3[nH]1)CC2` [Example 132, N-{1-[(difluoromethoxy)methyl]cyclopropyl}-5-(1H-indole-2-carbonyl)-4H,5H,6H,7H-[1,2]oxazolo[4,3-c]pyridine-3-carboxamide] the value was less than 5 µM. For `O=C(NC1(COC(F)F)CC1)c1onc2c1CN(C(=O)c1cc3c(Cl)cccc3[nH]1)CC2` [Example 133, 5-(4-chloro-1H-indole-2-carbonyl)-N-{1-[(difluoromethoxy)methyl]cyclopropyl}-4H,5H,6H,7H-[1,2]oxazolo[4,3-c]pyridine-3-carboxamide] the value was less than 5 µM. `O=C(c1cc2ccccc2[nH]1)N1CCc2nn3c(c2C1)C(=O)N(CCN1CCOCC1)C1(CC3)CC1` [Example 134, 4′-(1H-indole-2-carbonyl)-13′-[2-(morpholin-4-yl)ethyl]-4′,8′,9′,13′-tetraazaspiro[cyclopropane-1,12′-tricyclo[7.5.0.0^2,7]tetradecane]-1′,7′-dien-14′-one]: the IC50 was less than 5 µM. In the case of `CN(C(=O)c1n[nH]c2c1CN(C(=O)c1cc3cc(F)c(Cl)cc3[nH]1)CC2)C1(c2ncc(C(=O)O)cn2)CC1` [Example 136, 2-{1-[N-methyl-5-(6-chloro-5-fluoro-1H-indole-2-carbonyl)-2H,4H,5H,6H,7H-pyrazolo[4,3-c]pyridine-3-amido]cyclopropyl}pyrimidine-5-carboxylic acid] it was less than 5 µM; in that of `O=C(O)c1ccc(C2(NC(=O)c3cnn4c3CN(C(=O)c3cc5ccccc5[nH]3)CC4)CC2)cc1` [Example 137, 4-{1-[5-(1H-indole-2-carbonyl)-4H,5H,6H,7H-pyrazolo[1,5-a]pyrazine-3-amido]cyclopropyl}benzoic acid], less than 5 µM.

For `C[C@@H](NC(=O)c1ncn2c1CN(C(=O)c1cc3ccccc3[nH]1)CC2)C(F)(F)F` [Example 138, 7-(1H-indole-2-carbonyl)-N-[(2R)-1,1,1-trifluoropropan-2-yl]-5H,6H,7H,8H-imidazo[1,5-a]pyrazine-1-carboxamide], the IC50 was less than 5 µM. In the case of `CN1CCCn2nc3c(c2C1=O)CN(C(=O)c1cc2ccccc2[nH]1)CC3` [Example 139, 4-(1H-indole-2-carbonyl)-13-methyl-4,8,9,13-tetraazatricyclo[7.5.0.0^2,7]tetradeca-1,7-dien-14-one] it was less than 5 µM; in that of `O=C(c1cc2ccccc2[nH]1)N1CCc2nn3c(c2C1)C(=O)N(CCO)C1(CC1)C3` [Example 140, 4′-(2-hydroxyethyl)-12′-(1H-indole-2-carbonyl)-4′,7′,8′,12′-tetraazaspiro[cyclopropane-1,5′-tricyclo[7.4.0.0^2,7]tridecane]-1′,8′-dien-3′-one], less than 5 µM.

Consider `O=C(NC1(COC(F)F)CC1)c1onc2c1CN(C(=O)c1cc3cc(F)c(F)cc3[nH]1)CC2` [Example 141, 5-(5,6-difluoro-1H-indole-2-carbonyl)-N-{1-[(difluoromethoxy)methyl]cyclopropyl}-4H,5H,6H,7H-[1,2]oxazolo[4,3-c]pyridine-3-carboxamide], for which the IC50 is less than 5 µM. For `O=C(NC1(COC(F)F)CC1)c1onc2c1CN(C(=O)c1cc3c(F)c(F)ccc3[nH]1)CC2` [Example 143, 5-(4,5-difluoro-1H-indole-2-carbonyl)-N-{1-[(difluoromethoxy)methyl]cyclopropyl}-4H,5H,6H,7H-[1,2]oxazolo[4,3-c]pyridine-3-carboxamide] the value was less than 5 µM; for `O=C(NC1(COC(F)F)CC1)c1onc2c1CN(C(=O)c1cc3cc(F)c(Cl)cc3[nH]1)CC2` [Example 144, 5-(6-chloro-5-fluoro-1H-indole-2-carbonyl)-N-{1-[(difluoromethoxy)methyl]cyclopropyl}-4H,5H,6H,7H-[1,2]oxazolo[4,3-c]pyridine-3-carboxamide], less than 5 µM. For `CC1CCn2nc3c(c2C(=O)N1C)CN(C(=O)c1cc2ccccc2[nH]1)CC3` (stereo not drawn) [Example 145, 4-(1H-indole-2-carbonyl)-12,13-dimethyl-4,8,9,13-tetraazatricyclo[7.5.0.0^2,7]tetradeca-1,7-dien-14-one] the value was less than 5 µM. As for `O=C(c1cc2ccccc2[nH]1)N1CCc2nn3c(c2C1)C(=O)N(CCOC(F)(F)F)C1(CC3)CC1` [Example 146, 4′-(1H-indole-2-carbonyl)-13′-[2-(trifluoromethoxy)ethyl]-4′,8′,9′,13′-tetraazaspiro[cyclopropane-1,12′-tricyclo[7.5.0.0^2,7]tetradecane]-1′,7′-dien-14′-one], the IC50 is less than 5 µM. For `O=C(c1cc2ccccc2[nH]1)N1CCc2nn3c(c2C1)C(=O)N(CC(F)F)C1(CC3)CC1` [Example 147, 13′-(2,2-difluoroethyl)-4′-(1H-indole-2-carbonyl)-4′,8′,9′,13′-tetraazaspiro[cyclopropane-1,12′-tricyclo[7.5.0.0^2,7]tetradecane]-1′,7′-dien-14′-one] the value was less than 5 µM.
